Source: ChEMBL document CHEMBL3885861, “Open TG-GATES”

Species on record: Rattus norvegicus
Assay: Open TG-GATES - Regimen: Single
Type: toxicity, organism-based, Sprague-Dawley
Parameters: regimen Single, gender Male, age 6 weeks
Details: in vivo, po, route gavage; for gamma-GTP / ALP / AST / BUN / CRE / Ca / DBIL / GLC / IP / K / LDH / Na / PL / RALB / TBIL / TC / TG / TP / ALT: tissue Plasma; for APTT / Bas / Eos / Fbg / Hb / Ht / MCH / MCHC / MCV / Mono / Neu / PT / Plat / RBC / Ret / WBC / Lym: tissue Blood; for KIDNEY_L / KIDNEY_R / KIDNEY_TOTAL: tissue Kidney; for LIVER: tissue Liver
[1] = 300 mg/kg, 3 h, dose level Middle
[2] = 300 mg/kg, 6 h, dose level Middle
[3] = 300 mg/kg, 9 h, dose level Middle
[4] = 300 mg/kg, 24 h, dose level Middle
[5] = 1000 mg/kg, 3 h, dose level High
[6] = 1000 mg/kg, 6 h, dose level High
[7] = 1000 mg/kg, 9 h, dose level High
[8] = 1000 mg/kg, 24 h, dose level High

O=C(O)c1cn(C2CC2)c2cc(N3CCNCC3)c(F)cc2c1=O [CIPROFLOXACIN]
gamma-GTP (100 mg/kg, 24 h, dose level Low): 1.4 IU/L
TERMINAL_BW [1]: 184.9 g
APTT [1]: 16.7 s
Bas [1]: 0%
Eos [1]: 0.4%
Fbg [1]: 204.6 mg/dL
Hb [1]: 13.2 g/dL
Ht [1]: 39.5%
MCH [1]: 22.8 pg
MCHC [1]: 33.4%
MCV [1]: 68.2 fL
Mono [1]: 6%
Neu [1]: 14.2%
PT [1]: 12.4 s
Plat [1]: 99.2 x10_4/uL
RBC [1]: 579 x10_4/ul
Ret [1]: 11.6%
WBC [1]: 102.6 x10_2/uL
KIDNEY_L [1]: 0.8 g
KIDNEY_R [1]: 0.9 g
KIDNEY_TOTAL [1]: 1.7 g
LIVER [1]: 9 g
ALP [1]: 905.6 IU/L
AST [1]: 68.2 IU/L
BUN [1]: 11.6 mg/dL
CRE [1]: 0.5 mg/dL
Ca [1]: 11 mg/dL
DBIL [1]: 0.006 mg/dL
GLC [1]: 183.6 mg/dL
IP [1]: 9.9 mg/dL
K [1]: 4.7 meq/L
LDH [1]: 78.6 IU/L
Na [1]: 138.8 meq/L
PL [1]: 145.6 mg/dL
RALB [1]: 3.9 g/dL
TBIL [1]: 0.4 mg/dL
TC [1]: 84 mg/dL
TG [1]: 43.6 mg/dL
TP [1]: 5.5 g/dL
gamma-GTP [1]: 1 IU/L
TERMINAL_BW [2]: 179.8 g
Bas [2]: 0%
Eos [2]: 1%
Fbg [2]: 208.2 mg/dL
Hb [2]: 12.8 g/dL
MCH [2]: 22.1 pg
MCHC [2]: 33%
MCV [2]: 67.1 fL
Mono [2]: 8%
PT [2]: 12.4 s
Plat [2]: 101.5 x10_4/uL
RBC [2]: 579.8 x10_4/ul
Ret [2]: 10.5%
WBC [2]: 103.6 x10_2/uL
KIDNEY_L [2]: 0.9 g
KIDNEY_R [2]: 0.8 g
KIDNEY_TOTAL [2]: 1.7 g
LIVER [2]: 8.1 g
ALP [2]: 804.2 IU/L
ALT [2]: 35.2 IU/L
BUN [2]: 11 mg/dL
CRE [2]: 0.5 mg/dL
Ca [2]: 11.6 mg/dL
DBIL [2]: 0.038 mg/dL
GLC [2]: 175.2 mg/dL
IP [2]: 10.3 mg/dL
K [2]: 5.1 meq/L
LDH [2]: 82.2 IU/L
Na [2]: 138 meq/L
PL [2]: 131.8 mg/dL
RALB [2]: 3.8 g/dL
TBIL [2]: 0.4 mg/dL
TC [2]: 82.2 mg/dL
TG [2]: 36.2 mg/dL
TP [2]: 5.6 g/dL
gamma-GTP [2]: 1.4 IU/L
TERMINAL_BW [3]: 176.2 g
APTT [3]: 16.9 s
Bas [3]: 0%
Eos [3]: 0.8%
Fbg [3]: 220.4 mg/dL
Hb [3]: 13.2 g/dL
Ht [3]: 39.7%
Lym [3]: 81%
MCV [3]: 67.5 fL
Mono [3]: 5.2%
Neu [3]: 13.4%
PT [3]: 11.5 s
Plat [3]: 101.9 x10_4/uL
RBC [3]: 588.6 x10_4/ul
Ret [3]: 9.9%
WBC [3]: 105.6 x10_2/uL
KIDNEY_L [3]: 0.8 g
KIDNEY_R [3]: 0.8 g
KIDNEY_TOTAL [3]: 1.7 g
LIVER [3]: 7.2 g
ALP [3]: 927.2 IU/L
ALT [3]: 33 IU/L
AST [3]: 67.4 IU/L
BUN [3]: 10.2 mg/dL
CRE [3]: 0.5 mg/dL
DBIL [3]: 0.082 mg/dL
GLC [3]: 191.4 mg/dL
IP [3]: 10.9 mg/dL
K [3]: 5 meq/L
LDH [3]: 79.8 IU/L
Na [3]: 139.2 meq/L
PL [3]: 120.4 mg/dL
RALB [3]: 3.9 g/dL
TBIL [3]: 0.3 mg/dL
TC [3]: 72.8 mg/dL
TP [3]: 5.6 g/dL
gamma-GTP [3]: 1.4 IU/L
TERMINAL_BW [4]: 194.3 g
Bas [4]: 0%
Eos [4]: 1%
Fbg [4]: 214.4 mg/dL
Hb [4]: 12.9 g/dL
Lym [4]: 77.2%
MCH [4]: 21.4 pg
MCHC [4]: 33.1%
MCV [4]: 64.8 fL
Mono [4]: 7%
PT [4]: 12.4 s
Plat [4]: 106.2 x10_4/uL
RBC [4]: 600.4 x10_4/ul
Ret [4]: 9.4%
WBC [4]: 96.1 x10_2/uL
KIDNEY_L [4]: 0.9 g
KIDNEY_R [4]: 0.9 g
KIDNEY_TOTAL [4]: 1.8 g
LIVER [4]: 8.5 g
ALP [4]: 843 IU/L
ALT [4]: 37.8 IU/L
AST [4]: 71.8 IU/L
BUN [4]: 17.6 mg/dL
CRE [4]: 0.5 mg/dL
Ca [4]: 11.3 mg/dL
DBIL [4]: 0.058 mg/dL
GLC [4]: 193 mg/dL
IP [4]: 9.2 mg/dL
K [4]: 4.7 meq/L
LDH [4]: 93.4 IU/L
Na [4]: 140.2 meq/L
PL [4]: 153.2 mg/dL
RALB [4]: 3.9 g/dL
TBIL [4]: 0.3 mg/dL
TC [4]: 95.4 mg/dL
TG [4]: 49 mg/dL
TP [4]: 5.9 g/dL
gamma-GTP [4]: 1.8 IU/L
TERMINAL_BW [5]: 182 g
APTT [5]: 17 s
Bas [5]: 0%
Eos [5]: 0.4%
Fbg [5]: 215.6 mg/dL
Hb [5]: 12.9 g/dL
Lym [5]: 80.4%
MCH [5]: 21.7 pg
MCHC [5]: 33.1%
MCV [5]: 65.5 fL
Mono [5]: 6.6%
Neu [5]: 12.6%
PT [5]: 12.6 s
Plat [5]: 101.8 x10_4/uL
RBC [5]: 592.8 x10_4/ul
Ret [5]: 11.2%
WBC [5]: 101.3 x10_2/uL
KIDNEY_L [5]: 0.8 g
KIDNEY_R [5]: 0.8 g
KIDNEY_TOTAL [5]: 1.7 g
LIVER [5]: 8.6 g
ALP [5]: 791 IU/L
ALT [5]: 36.8 IU/L
CRE [5]: 0.5 mg/dL
DBIL [5]: 0.022 mg/dL
GLC [5]: 191.2 mg/dL
IP [5]: 10.3 mg/dL
K [5]: 4.7 meq/L
LDH [5]: 132.2 IU/L
Na [5]: 139 meq/L
PL [5]: 141 mg/dL
RALB [5]: 3.8 g/dL
TBIL [5]: 0.3 mg/dL
TC [5]: 81.2 mg/dL
TG [5]: 47 mg/dL
TP [5]: 5.6 g/dL
gamma-GTP [5]: 1.4 IU/L
TERMINAL_BW [6]: 179.7 g
Bas [6]: 0%
Eos [6]: 0.8%
Fbg [6]: 210.4 mg/dL
Hb [6]: 12.9 g/dL
Ht [6]: 39.1%
Lym [6]: 78.2%
MCHC [6]: 32.9%
MCV [6]: 67.5 fL
Mono [6]: 7.6%
Neu [6]: 13.8%
PT [6]: 12.5 s
Plat [6]: 100.8 x10_4/uL
RBC [6]: 579.8 x10_4/ul
Ret [6]: 10%
WBC [6]: 97.6 x10_2/uL
KIDNEY_L [6]: 0.8 g
KIDNEY_R [6]: 0.8 g
KIDNEY_TOTAL [6]: 1.7 g
LIVER [6]: 7.9 g
ALP [6]: 904.2 IU/L
AST [6]: 69.4 IU/L
BUN [6]: 10 mg/dL
CRE [6]: 0.5 mg/dL
Ca [6]: 11.4 mg/dL
DBIL [6]: 0.052 mg/dL
GLC [6]: 185.8 mg/dL
IP [6]: 10.8 mg/dL
K [6]: 5.3 meq/L
LDH [6]: 140.4 IU/L
Na [6]: 138 meq/L
PL [6]: 137.2 mg/dL
RALB [6]: 3.7 g/dL
TBIL [6]: 0.3 mg/dL
TC [6]: 79.8 mg/dL
TP [6]: 5.5 g/dL
gamma-GTP [6]: 1 IU/L
TERMINAL_BW [7]: 176.2 g
APTT [7]: 16.9 s
Bas [7]: 0%
Eos [7]: 0.8%
Fbg [7]: 223 mg/dL
Hb [7]: 13.2 g/dL
Ht [7]: 39.9%
Lym [7]: 83.6%
MCH [7]: 22 pg
MCHC [7]: 33%
MCV [7]: 66.5 fL
Mono [7]: 5.8%
Neu [7]: 10%
PT [7]: 11.4 s
Plat [7]: 104.6 x10_4/uL
RBC [7]: 601 x10_4/ul
WBC [7]: 94.6 x10_2/uL
KIDNEY_L [7]: 0.8 g
KIDNEY_R [7]: 0.9 g
KIDNEY_TOTAL [7]: 1.7 g
LIVER [7]: 7.3 g
ALP [7]: 763.8 IU/L
AST [7]: 71.4 IU/L
BUN [7]: 11 mg/dL
CRE [7]: 0.5 mg/dL
Ca [7]: 10.8 mg/dL
DBIL [7]: 0.08 mg/dL
GLC [7]: 192.4 mg/dL
IP [7]: 11 mg/dL
K [7]: 5.2 meq/L
LDH [7]: 168.2 IU/L
Na [7]: 139 meq/L
PL [7]: 131.4 mg/dL
RALB [7]: 3.8 g/dL
TBIL [7]: 0.3 mg/dL
TC [7]: 78 mg/dL
TG [7]: 22.2 mg/dL
TP [7]: 5.6 g/dL
gamma-GTP [7]: 1.4 IU/L
TERMINAL_BW [8]: 193.6 g
APTT [8]: 15.4 s
Bas [8]: 0%
Eos [8]: 0.8%
Fbg [8]: 219.4 mg/dL
Hb [8]: 13.5 g/dL
Ht [8]: 40.1%
Lym [8]: 80%
MCHC [8]: 33.6%
Mono [8]: 6.4%
Neu [8]: 12.6%
PT [8]: 12.4 s
Plat [8]: 106.5 x10_4/uL
RBC [8]: 600.2 x10_4/ul
Ret [8]: 9.1%
WBC [8]: 110.9 x10_2/uL
KIDNEY_L [8]: 0.8 g
KIDNEY_R [8]: 0.9 g
KIDNEY_TOTAL [8]: 1.7 g
LIVER [8]: 8.7 g
ALP [8]: 1158.6 IU/L
ALT [8]: 49 IU/L
BUN [8]: 19.2 mg/dL
CRE [8]: 0.5 mg/dL
Ca [8]: 11.3 mg/dL
DBIL [8]: 0.028 mg/dL
GLC [8]: 183.8 mg/dL
IP [8]: 9.9 mg/dL
K [8]: 4.6 meq/L
LDH [8]: 177.2 IU/L
Na [8]: 140 meq/L
PL [8]: 146.4 mg/dL
RALB [8]: 4 g/dL
TBIL [8]: 0.2 mg/dL
TC [8]: 84 mg/dL
TG [8]: 51.2 mg/dL
TP [8]: 6 g/dL
gamma-GTP [8]: 1.2 IU/L
